The text below walks through data of US8981094B2, “Piperidine/piperazine derivatives” (Janssen Pharmaceutica N.V., priority 2007, dated 2015).

The target of one data set is T1, human DGAT1 (Homo sapiens, UniProt O75907).
T1 construct: FLAG (N); made in house; host or cells: SF9 insect cells (pFastBac baculovirus); total cell membranes
T1 sequence (O75907 1-488): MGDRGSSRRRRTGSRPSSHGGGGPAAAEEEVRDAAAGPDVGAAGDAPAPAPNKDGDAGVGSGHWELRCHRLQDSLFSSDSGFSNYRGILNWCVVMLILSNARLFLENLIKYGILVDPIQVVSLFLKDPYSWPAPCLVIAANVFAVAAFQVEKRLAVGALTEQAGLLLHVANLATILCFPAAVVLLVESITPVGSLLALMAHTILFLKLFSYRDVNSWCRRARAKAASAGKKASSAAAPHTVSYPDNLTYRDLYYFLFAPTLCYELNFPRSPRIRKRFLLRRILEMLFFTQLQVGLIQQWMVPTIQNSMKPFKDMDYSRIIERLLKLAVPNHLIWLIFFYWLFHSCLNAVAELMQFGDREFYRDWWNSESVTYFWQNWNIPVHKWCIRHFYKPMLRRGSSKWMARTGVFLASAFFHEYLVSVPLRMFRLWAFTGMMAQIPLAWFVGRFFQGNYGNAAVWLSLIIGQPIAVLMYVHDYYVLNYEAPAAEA
Nature of the data set: Inhibition of DGAT1 activity, FlashPlate assay with DGAT1 membrane preparations and substrate micelles. It is filed as biochemical. The conditions noted are these: pIC50 = -logIC50, IC50 values expressed in M. In outline: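 FLAG-tagged human DGAT1 membranes (expressed in Sf9 cells) were incubated 120 min at 37° C. in 50 mM Tris-HCl pH 7.4 with 150 mM MgCl2, 1 mM EDTA, 0.2% BSA, 50 μM DAG micelles (PC/PS) and 8.4 μM [^3H]-oleoylCoA. The reaction was stopped with N-ethylmaleimide and read as FlashPlate radioluminescence. Responses were normalized to enzyme/no-enzyme controls to fit dose-response curves.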

The next data set deals with GLP-1 plasma levels. Nature of the data set: In vivo study for effect of test compound on GLP-1 plasma levels (postprandial profile). Conditions: dogs fasted 22 hours, liquid meal 18% fat, compound given orally with the meal; compared with own profile without compound; compound 223 at 0.3 mg/kg in FIG. 1. As for the experimental part: B) In Vivo Study for Effect of Test Compound on GLP-1 Plasma Levels
Elevation of GLP-1 plasma levels by a DGAT inhibitor was studied as follows:
(§1) Dogs were deprived from food for a period of 22 hours. At time 0, animals were given a liquid meal, containing 18% fat (w/w), by gavage with a stomach tube. The test compound was given orally together with the meal. Afterwards, a postprandial plasma profile was determined for GLP-1. Therefore, blood was collected at predetermined time intervals in ice-cooled Vacutainers EDTA-plasma tubes and GLP-1 levels were measured in the samples taken at 0 hour (just before the meal) and at 0.5, 1, 2, 4, 6, 8 and 24 hours after dosing. Six dogs (3 males and 3 females) were included per dosage group and the plasma GLP-1 profile was compared with their own GLP-1 profile previously determined in the same conditions but without administration of the test compound.
GLP-1 determinations in plasma were performed with a Glucagon-like peptide-1 (active) ELISA kit 96-well plate of LINCO Research.

Data set [1] has as its system plasma triglyceride levels. Briefly: Plasma triglyceride profile after liquid fat meal in dogs. The conditions noted are these: liquid meal 18% fat, compound given orally, compared with own profile without compound. It is filed as in vivo. As for the experimental part:
as §1
In addition to the plasma GLP-1 profile, also the plasma triglyceride profile can be determined and compared with their own triglyceride profile previously determined in the same conditions but without administration of the test compound. After administration of compound 223, triglyceride levels decreased.

As for `CNC(C)c1cc(Cl)c(NC(=O)N2CCN(c3ccc(NC(=O)CCCc4ccccc4)cc3)CC2)c(Cl)c1` (stereo not shown) [Compound 24], the melting point (commonly the temperature, or range, at which the solid turns liquid) worked out at 180.7 °C. Also, the IC50 – broadly, the point on the concentration scale where inhibition reaches its midpoint – on human DGAT1 is 15.8 nM. Also, in the data set with GLP-1 plasma levels, the “GLP-1 plasma levels (postprandial plasma profile)” value (“GLP-1 plasma levels” for short) is on record as “increase GLP-1 levels”.

Consider `O=C(CCCc1ccccc1)Nc1ccc(N2CCN(C(=O)Nc3c(Cl)cc(O)cc3Cl)CC2)cc1` [Compound 30], for which the melting point stood at 175.4 °C. On human DGAT1, 4.47 nM corresponded to half-maximal inhibition (IC50). In addition, in the data set with GLP-1 plasma levels, the “GLP-1 plasma levels” value was “increase GLP-1 levels”.

In turn, `COc1ccc(CC(=O)Nc2ccc(N3CCN(C(=O)Nc4c(Cl)cc(CN5CCCC5)cc4Cl)CC3)cc2)cc1` [Compound 223] had a melting point of 252.22 °C. For the same molecule, the “plasma triglyceride levels (profile)” value in data set [1] is “decreased”. The molecule further had an IC50 against human DGAT1 of 20 nM. In addition, in the data set with GLP-1 plasma levels, the “GLP-1 plasma levels” value is listed as “increase GLP-1 levels”.

Turning to `COc1ccc(COC(=O)CCCC(=O)Nc2ccc(N3CCN(C(=O)Nc4c(Cl)cc(CN5CCCCC5)cc4Cl)CC3)cc2)cc1` [Compound 285], the melting point is 178 to 179 °C. On human DGAT1, this molecule gave an IC50 of 9.12 nM.

As for `CC(c1cc(Cl)c(NC(=O)N2CCN(c3ccc(NC(=O)CCCc4ccccc4)cc3)CC2)c(Cl)c1)N(C)C` (stereo not shown) [Compound 288], the melting point is 191.86 °C. Moreover, on human DGAT1, the IC50 was 10 nM.

Molecule `O=C(CCNc1ccccc1Cl)Nc1ccc(N2CCN(C(=O)Nc3c(Cl)cccc3Cl)CC2)cc1` [Compound 289] came in with a melting point of 244 to 245 °C. At human DGAT1, this molecule showed an IC50 of 10.2 nM.

In the case of `O=C(CCCC(=O)OCc1ccccc1)Nc1ccc(N2CCN(C(=O)Nc3c(Cl)cc(CN4CCCCC4)cc3Cl)CC2)cc1` [Compound 292], the melting point was 180 to 181 °C. This molecule had an IC50 at human DGAT1 of 10.7 nM.

Regarding `Cc1ccc(NCCC(=O)Nc2ccc(N3CCN(C(=O)Nc4c(Cl)cccc4Cl)CC3)cc2)c(C)c1` [Compound 298], the melting point lay within 241 to 242 °C. This molecule showed an IC50 against human DGAT1 of 17.4 nM.

Molecule `COc1ccc(CC(=O)Nc2ccc(N3CCN(C(=O)Nc4c(Cl)cc(C[N+]5([O-])CCCC5)cc4Cl)CC3)cc2)cc1` [Compound 299] came in with a melting point of 168.24 °C. The molecule further had an IC50 on human DGAT1 of 19.1 nM.

Molecule `O=C(CCCc1ccccc1)Nc1ccc(C2CCN(C(=O)Nc3c(Cl)cc(C(=O)O)cc3Cl)CC2)cc1` [Compound 301] showed a melting point of 152 to 153 °C. On human DGAT1, this molecule gave an IC50 of 20.9 nM.

`O=C(COC(=O)c1ccccc1)Nc1ccc(N2CCN(C(=O)Nc3c(Cl)cc(CN4CCCC4)cc3Cl)CC2)cc1` [Compound 304]: the melting point was 243.74 °C. Besides, the IC50 against human DGAT1 was 21.9 nM.

In the case of `COc1ccc(CC(=O)Nc2ccc(N3CCN(C(=O)Nc4c(Cl)cc(C(=O)N5CCN(C)CC5)cc4Cl)CC3)cc2)cc1` [Compound 305], the melting point came to 253.39 °C. The molecule further had a half-maximal inhibitory concentration (IC50) against human DGAT1 of 24.5 nM.

Take `O=C(CC(=O)OCc1ccccc1)Nc1ccc(N2CCN(C(=O)Nc3c(Cl)cc(CN4CCCC4)cc3Cl)CC2)cc1` [Compound 307]: the melting point amounted to 206.22 °C. Moreover, the 50% inhibitory concentration (IC50) against human DGAT1 was 29.5 nM.

In turn, `Cc1ccc(CNCC(=O)Nc2ccc(N3CCN(C(=O)Nc4c(Cl)cc(O)cc4Cl)CC3)cc2)c(C)c1` [Compound 311] registered a melting point of 212 to 213 °C. For the same molecule, the IC50 against human DGAT1 is 43.7 nM.

The molecule `COc1ccc(CC(=O)Nc2ccc(N3CCN(C(=O)Oc4c(Cl)cc(CN(C)C)cc4Cl)CC3)cc2)cc1` [Compound 312] came in with a melting point of 182.46 °C. Further, inhibition at human DGAT1 was half-maximal at 44.7 nM (IC50).

In turn, `COc1ccc(CC(=O)Nc2ccc(N3CCN(C(=O)Nc4c(Cl)cc(CC[N+](C)(C)C)cc4Cl)CC3)cc2)cc1` [Compound 317] returned a melting point of 248.28 °C. For the same molecule, at human DGAT1, the IC50 is 63.1 nM.

With `CCOC(=O)CCCC(=O)Nc1ccc(N2CCN(C(=O)Nc3c(Cl)cc(CN4CCCCC4)cc3Cl)CC2)cc1` [Compound 318], the melting point lay within 211 to 212 °C. On human DGAT1, this molecule showed a half-inhibitory concentration (IC50) of 64.6 nM.

With `CC(=O)c1cc(Cl)c(NC(=O)N2CCC(c3ccc(NC(=O)CCCc4ccccc4)cc3)CC2)c(Cl)c1` [Compound 319], the melting point was in the range of 160 to 161 °C. At human DGAT1, this molecule showed an IC50 of 66.1 nM.

Consider `CCOC(=O)CCCC(=O)Nc1ccc(N2CCN(C(=O)Nc3c(Cl)cc(CN4CCCC4)cc3Cl)CC2)cc1` [Compound 322], for which the melting point turned out to be 208.65 °C. Further, the IC50 at human DGAT1 was 91.2 nM.

With `COC(=O)c1cc(Cl)c(NC(=O)N2CCC(c3ccc(NC(=O)CCCc4ccccc4)cc3)CC2)c(Cl)c1` [Compound 324], the melting point lay within 204 to 205 °C. The same molecule showed an IC50 on human DGAT1 of 107 nM.

In the case of `O=C(CCC(O)c1ccccc1)Nc1ccc(N2CCN(C(=O)Cc3c(Cl)cccc3Cl)CC2)cc1` (stereo not shown) [Compound 333], the melting point worked out at 200.57 °C. The IC50 at human DGAT1 is 355 nM.

The molecule `CC(O)c1cc(Cl)c(NC(=O)N2CCN(c3ccc(N(C)C(=O)CCCc4ccccc4)cc3)CC2)c(Cl)c1` (stereo not shown) [Compound 335] had a melting point of 179.55 °C. The molecule further gave a half-maximal inhibitory concentration (IC50) against human DGAT1 of 479 nM.

Take `O=C(CCCc1ccccc1)Nc1ccc(N2CCN(C(=O)Cc3ccccc3)CC2)cc1` [Compound 338]: the melting point stood at 146.12 °C. At human DGAT1, the midpoint of inhibition, the IC50, lay at 2570 nM.

On to `O=C(CCCc1ccccc1)Nc1ccc(N2CCN(C(=O)Nc3ccccc3)CC2)cc1` [Compound 339], for which the melting point was determined as 219.91 °C. Inhibition on human DGAT1 was half-maximal at 3090 nM (IC50).
